Laboratory results from publication PMC10791743, “Selective CK1α degraders exert antiproliferative activity against a broad range of human cancer cell lines” (Nature Communications, 2024).
Values joined by “and” are separate entries in the source; they are usually repeats but may differ in a detail not shown here. Identical values can stand only once.

Legend:
CRBN−/− MOLM-13 cells = assay: Annexin-V staining for apoptosis, CRBN−/− MOLM-13; format: cell-based, human; conditions: for Effect on viability of CRBN−/− cells (annexin-V): 1 μM; for Late apoptosis, flow cytometry / Early apoptosis, flow cytometry: CRBN-/-; for total apoptosis, flow cytometry: MOLM-13 CRBN-/-
Description: Wild type and CRBN^−/− MOLM-13 cells were grown in 12-well plates (TPP, Techno Plastic Products AG) with 500,000 cells per well in 2 ml total media volume. Cells were treated with 1 μl/ml DMSO or 1 μM compound in triplicate, and incubated for 24 or 72 h at 37 °C. To prepare samples, this buffer was used: 10 mM HEPES, 0.14 M NaCl, 2.5 mM CaCl2 pH 7.4, 2% v/v FBS in UltraPure water (Invitrogen). After incubation, samples were collected in 5-ml tubes for flow cytometry (Falcon). Single-stain controls consisted of ~150 μl of multiple samples combined. Wells were washed with 1 ml of buffer that was added to the corresponding sample tube. Cells were centrifuged at 500×g for 5 min at 4 °C to form a pellet. Supernatant was decanted and cells were washed again with 3 ml of buffer, then centrifuged. After decanting the supernatant, 3 μl of APC-conjugated anti-Annexin-V antibody (BioLegend) was added to each tube in the residual buffer left behind. Samples were mixed by vortex and incubated at room temperature in the dark for 20 min. Samples were then washed and centrifuged a final time, decanting the supernatant and blotting the tubes to remove residual buffer. 50 μl of buffer with DAPI was added to all appropriate samples and mixed, then analyzed by flow cytometry.
Supplementary Fig. 13: Gating for Annexin V flow cytometry analysis. Total cells were gated to remove cell debris, followed by single cell gating on the FSC-A/FSC-H diagonal. Within the single […]
Live cells are negative for both fluorescent markers, DAPI positive/APC negative cells are necrotic, APC positive/DAPI negative cells are still alive but in the early stages of apoptosis, and double positive cells are dead via apoptosis. Percentages of early and late apoptosis were plotted in supplementary figures 4 and 5.
(1 picture or pasted object on this page, not shown here)

CK1α [1] = biological target: T1, CK1α (Homo sapiens, UniProt P48729+Q96SW2); assay: CK1α HiBiT live-cell kinetic degradation assay (HEK293 cells); format: cell-based; design: engineered by CRISPR/Cas9 to express endogenous CK1α (HEK293 cells) with a HiBiT tag; conditions: for Dmax at 0.111 µM: CK1, 0.111 uM; for Dmax at 0.111 µM / Dmax at 0.333 µM / Dmax at 1 µM / Dmax at 3 µM / Dmax at 10 µM: read-out: CK1a Percent Maximum Degradation; for Dmax at 0.333 µM: CK1, 0.333 uM; for Dmax at 1 µM: CK1, 1 uM; for Dmax at 3 µM: CK1, 3 uM; for Dmax at 10 µM: CK1, 10 uM; for CK1α degradation depth (HiBiT): HEK293; for DC50: HEK293, at 4 h
T1 sequence (P48729 whole entry): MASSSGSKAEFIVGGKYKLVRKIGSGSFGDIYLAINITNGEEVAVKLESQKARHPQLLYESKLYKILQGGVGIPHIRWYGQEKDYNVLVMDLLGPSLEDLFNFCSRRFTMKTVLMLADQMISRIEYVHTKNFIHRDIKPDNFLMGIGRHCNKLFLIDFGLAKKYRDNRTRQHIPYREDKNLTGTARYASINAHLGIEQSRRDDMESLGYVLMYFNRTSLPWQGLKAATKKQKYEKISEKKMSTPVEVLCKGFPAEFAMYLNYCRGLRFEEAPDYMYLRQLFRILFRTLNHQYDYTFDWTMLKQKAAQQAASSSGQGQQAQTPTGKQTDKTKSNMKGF
T1 sequence (Q96SW2 whole entry): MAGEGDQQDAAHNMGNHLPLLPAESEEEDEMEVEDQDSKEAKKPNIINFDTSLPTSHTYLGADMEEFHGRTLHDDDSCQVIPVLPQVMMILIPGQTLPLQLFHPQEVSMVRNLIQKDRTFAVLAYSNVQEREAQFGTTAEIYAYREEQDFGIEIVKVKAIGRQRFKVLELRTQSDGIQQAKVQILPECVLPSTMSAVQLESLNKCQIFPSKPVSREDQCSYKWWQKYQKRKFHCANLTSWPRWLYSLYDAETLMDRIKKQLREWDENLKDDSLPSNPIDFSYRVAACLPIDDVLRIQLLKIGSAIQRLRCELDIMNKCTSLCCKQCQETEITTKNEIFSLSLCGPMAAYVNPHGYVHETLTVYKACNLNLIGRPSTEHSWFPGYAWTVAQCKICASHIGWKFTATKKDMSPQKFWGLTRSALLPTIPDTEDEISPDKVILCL
T1 sequence (Q16531 whole entry partner): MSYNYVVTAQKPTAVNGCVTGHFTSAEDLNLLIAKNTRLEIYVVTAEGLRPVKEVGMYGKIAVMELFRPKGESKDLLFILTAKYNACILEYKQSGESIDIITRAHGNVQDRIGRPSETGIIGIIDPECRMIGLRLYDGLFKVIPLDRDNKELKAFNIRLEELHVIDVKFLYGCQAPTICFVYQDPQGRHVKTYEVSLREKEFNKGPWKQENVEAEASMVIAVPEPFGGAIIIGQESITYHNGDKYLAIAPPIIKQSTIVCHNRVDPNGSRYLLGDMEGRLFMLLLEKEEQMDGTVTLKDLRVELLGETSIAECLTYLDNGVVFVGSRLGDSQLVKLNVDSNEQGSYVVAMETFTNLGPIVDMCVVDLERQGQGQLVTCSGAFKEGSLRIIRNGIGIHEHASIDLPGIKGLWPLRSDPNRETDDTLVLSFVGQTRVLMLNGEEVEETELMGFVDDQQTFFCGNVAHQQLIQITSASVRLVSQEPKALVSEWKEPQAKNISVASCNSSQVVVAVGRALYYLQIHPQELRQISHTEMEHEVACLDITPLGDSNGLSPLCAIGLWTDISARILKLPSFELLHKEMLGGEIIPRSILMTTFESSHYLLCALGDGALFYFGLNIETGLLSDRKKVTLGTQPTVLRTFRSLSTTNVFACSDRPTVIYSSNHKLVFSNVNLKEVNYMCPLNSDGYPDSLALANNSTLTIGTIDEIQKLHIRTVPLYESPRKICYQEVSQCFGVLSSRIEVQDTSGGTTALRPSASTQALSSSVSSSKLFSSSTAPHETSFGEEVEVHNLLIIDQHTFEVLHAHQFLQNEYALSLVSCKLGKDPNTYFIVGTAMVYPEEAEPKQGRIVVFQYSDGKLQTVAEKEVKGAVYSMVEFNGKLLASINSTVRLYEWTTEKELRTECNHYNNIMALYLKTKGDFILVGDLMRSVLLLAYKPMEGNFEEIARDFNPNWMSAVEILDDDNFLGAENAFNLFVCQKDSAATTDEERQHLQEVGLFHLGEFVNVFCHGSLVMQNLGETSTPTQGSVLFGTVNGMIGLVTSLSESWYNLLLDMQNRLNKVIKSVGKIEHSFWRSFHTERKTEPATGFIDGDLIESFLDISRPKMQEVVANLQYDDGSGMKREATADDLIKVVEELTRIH
Source text: To measure cellular protein levels, we used cell lines that have been engineered by CRISPR/Cas9 to express endogenous CK1α (HEK293 cells) or IKZF1 (Jurkat cells) with a HiBiT tag, which when coupled with LgBiT expression forms NanoBiT, a bioluminescent protein that can be used for kinetic studies of protein degradation. […] Cell viability was also monitored with CellTiter Glo 2.0 (Promega) at the completion of the experiment to ensure that loss of protein was not a consequence of a loss of cell viability.
IKZF1-HiBiT Jurkat LgBiT stable cells were seeded at 60,000 cells/well in 50% growth media/50% CO2 independent medium supplemented with 10% FBS and 1× Endurazine substrate. […] A dose–response curve was generated by performing 3-fold dilutions of each compound including a DMSO-only control in growth media. For live cell kinetic degradation assays, diluted compounds were added to CK1α and β-catenin plates and placed in a GloMax Discover (Promega, Cat. #GM3000) preheated to 37 °C or added to IKZF1 plates and placed in a CLARIOstar Plus (BMG LABTECH) preheated to 37 °C.
Relative protein level was determined based on normalization to the DMSO control and reported at Fractional RLUs. Degradation rate and degradation maximums were calculated from Fractional RLUs as previously described[38] using GraphPad Prism software. β-catenin stabilization time of onset for each concentration curve was calculated in GraphPad Prism by fitting an unconstrained plateau followed by one phase association model using the equation below (Y = IF(X < X0, Y0,Y0+(Plateau−Y0)*(1−exp(−K*(X−X0))))). The parameter, X0 was used as time of onset for each compound concentration.

CK1α [2] = biological target: T1, CK1α; assay: CK1α immunoblotting in MOLM-13 cells; format: cell-based; design: immunoblot analysis of CK1α in MOLM-13 cells following treatment with increasing concentrations of SJ7095 over 4 h; endogenous in cells; host or cells: MOLM-13 (DSMZ ACC 554); conditions: for DC50: read-out: CK1α DC50 (immunoblot)
Description: Frozen pellets of ~1 million cells were lysed in 150 µl of SDS lysis buffer (60 mM Tris/HCl pH 7, 10% glycerol, 2% SDS, 5% beta-mercaptoethanol, 0.02% bromophenol blue, 0.5% protease and phosphatase inhibitor cocktail (Sigma Aldrich)). When cells were resuspended, samples were heated for 3 min at 99 °C then put on ice. Samples were then fragmented by sonication for 10 0.5-s pulses (550 Sonic Dismembrator, Fisher Scientific) and heated again at 99 °C for 2 min. 15 μl of each sample was added to the wells of a 4–20% polyacrylamide gel (Bio-Rad). A mixture of 2 μl of Precision Plus Protein Unstained Standards and 2 μl of Precision Plus Protein All Blue Standards (Bio-Rad) was used for the size marker. After electrophoresis, gels were transferred to nitrocellulose membrane using the Bio-Rad Trans-Blot Turbo system on the mixed molecular weight setting. Membranes were blocked for 1 h in Li-Cor Intercept Blocking Buffer then probed overnight at 4 °C with primary antibody, at 1:1000 dilution or 1:2000 dilution for actin, in Li-Cor Intercept Antibody Diluent. The following morning, membranes were washed three times for 5 min with TBS + 0.05% Tween-20, probed with fluorescent secondary antibodies (goat anti-rabbit IRDye 800CW and goat anti-mouse IRDye 680RD, Li-Cor) for 1 h at room temperature in the dark at 1:10,000 dilution, and washed again 3 times. Blots were imaged with the Li-Cor Odyssey CLx and analyzed using Image Studio Version 5.2.

[3] = SI_Fig 4c, DMSO 10.2, 11.1, 11.2

CK1a Degradation Rate Constant (CK1α [1]; 0.111 uM)	CK1a Degradation Rate Constant (CK1α [1]; 0.333 uM)	CK1a Degradation Rate Constant (CK1α [1]; 1 uM)	CK1a Degradation Rate Constant (CK1α [1]; 3 uM)	CK1a Degradation Rate Constant (CK1α [1]; 10 uM)	Dmax at 0.111 µM (CK1α [1]) [%]	Dmax at 0.333 µM (CK1α [1]) [%]	Dmax at 1 µM (CK1α [1]) [%]	Dmax at 3 µM (CK1α [1]) [%]	Dmax at 10 µM (CK1α [1]; replicates) [%]	CK1α degradation depth (HiBiT) (CK1α [1])	DC50 (CK1α [1]) [nM]	DC50 (CK1α [2]; MOLM-13, 4 h) [nM]	Compound	Effect on viability of CRBN−/− cells (annexin-V) (CRBN−/− MOLM-13 cells)	Late apoptosis, flow cytometry (CRBN−/− MOLM-13 cells; SI_Fig 4b, DMSO 3.1, 3.5, 3.3)	Early apoptosis, flow cytometry (CRBN−/− MOLM-13 cells; SI_Fig 4b, DMSO 7.1, 7.5, 7.8)	Late apoptosis, flow cytometry (CRBN−/− MOLM-13 cells; SI_Fig 5b, DMSO 1.3, 1.9, 2)	Early apoptosis, flow cytometry (CRBN−/− MOLM-13 cells; SI_Fig 5b, DMSO 4.6, 5.9, 7.6)	total apoptosis, flow cytometry (CRBN−/− MOLM-13 cells; [3])	total apoptosis, flow cytometry (CRBN−/− MOLM-13 cells; SI_Fig 5c, DMSO 5.8, 7.8, 9.6)	further results
0.8978 λ/hour	1.129 λ/hour	1.27 λ/hour	1.321 λ/hour	1.331 λ/hour	64.3	75.2	79.8	80.9	81.6	near-complete degradation	35	15	O=C1CCC(N2Cc3c(CNC(=O)c4ccc(F)cc4)cccc3C2=O)C(=O)N1 (stereo not shown) [SJ7095]	no effect on the viability	2.7 and 3 and 3.2	6.9 and 8.1 and 7	1.7 and 2.1 and 1.9	6.5 and 6.7 and 7.2	9.6 and 11.1 and 10.2	8.2 and 8.8 and 9.1	CK1a Percent Maximum Degradation (CK1α [1]; 0.111 uM): 64.66% and 62.79% and 62.08%; CK1a Percent Maximum Degradation (CK1α [1]; 0.333 uM): 74.90% and 74.15% and 73.38%; CK1a Percent Maximum Degradation (CK1α [1]; 1 uM): 79.97% and 79.25% and 79.09%; CK1a Percent Maximum Degradation (CK1α [1]; 3 uM): 81.84% and 80.21% and 81.34%; CK1a Percent Maximum Degradation (CK1α [1]; 10 uM, replicates): 81.24% and 82.05% and 83.80%; CK1α degradation (CK1α [2]; MOLM-13, 100 nM, 4 h): near complete degradation of CK1α
1.349 λ/hour	1.489 λ/hour	1.645 λ/hour	1.768 λ/hour	1.807 λ/hour	85.1	88.2	87.9	87.3	89	near-complete degradation	10	11	Cc1cccc(C(=O)Nc2ccc3c(c2)CN(C2CCC(=O)NC2=O)C3=O)c1 (stereo not shown) [SJ0040]	no effect on the viability	3.1 and 2.5 and 2.8	7.6 and 5.6 and 6	2 and 1.5 and 1.3	5.5 and 5.1 and 4.5	10.6 and 8.1 and 8.8	7.5 and 6.5 and 5.9	CK1a Percent Maximum Degradation (CK1α [1]; 0.111 uM, listed as SJ10040): 87.09% and 81.49% and 82.97%; CK1a Percent Maximum Degradation (CK1α [1]; 0.333 uM, listed as SJ10040): 81.30% and 83.99% and 85.23%; CK1a Percent Maximum Degradation (CK1α [1]; 1 uM, listed as SJ10040): 85.32% and 82.59% and 87.28%; CK1a Percent Maximum Degradation (CK1α [1]; 3 uM, listed as SJ10040): 84.24% and 83.34% and 82.73%; CK1a Percent Maximum Degradation (CK1α [1]; 10 uM, replicates, listed as SJ10040): 89.47% and 88.18% and 86.50%; Dmax (CK1α [2]; MOLM-13, 4 h, read-out: CK1α Dmax (immunoblot)): 88%
